The values that follow come from patent publication US8802858B2, “Furazanobenzimidazoles as prodrugs to treat neoplastic or autoimmune diseases” (Basilea Pharmaceutica AG, priority 2009, dated 2014).

The data set can be described thus: Prodrug-drug conversion in full blood. It is filed as in vitro ADME. The settings on record: fresh heparinised rat blood, 37° C., after 120 min. As for the experimental part: 495 μL fresh heparinised rat blood are spiked with 5 μL of a 1 mg/mL DMSO solution of the analyte (prodrug) at 37° C. After t=0, 5, 15, 30, 60 and 120 min, a blood sample is taken and precipitated. Therefore to 50 μL blood sample or spiked blood sample 150 μL acetonitrile containing an internal standard are added. Samples are centrifuged and 20 μl of the supernatant are injected into the HPLC system for determination of compound concentration (prodrug and parent drug) by LC-MS/MS analysis.
For calibration, a standard curve is prepared with a compound concentration range from 10 to 10000 ng/mL in fresh heparine rat blood. Therefore the blood is spiked (2 μL DMSO solution in 198 μL fresh rat blood) and precipitated like unknown samples.

For the compound `NCC(=O)Nc1ccc(C(=O)Cn2c(-c3nonc3N)nc3ccccc32)cc1` [Example 12, 2-Amino-N-(4-{2-[2-(4-amino-furazan-3-yl)-benzoimidazol-1-yl]-acetyl}-phenyl)-acetamide], the “conversion of prodrug into its parent drug” value was “completely converted”.
